Assay results published in patent publication US7612087B2, “Heterocyclic compounds as inhibitors of beta-lactamases” (Novexel, priority 2002, dated 2009).
Where a name gives a salt, the structure may show the parent alone. Read-outs that look alike come from different tables or passages of the source.

Key:
β-lactamase TEM1 = target: T1, β-lactamase TEM1 (Escherichia coli, UniProt P62593); assay: Inhibition of isolated β-lactamase Tem-1 (Nitrocefin hydrolysis); type: biochemical, E.coli 250HT21; details: 100 μM Nitrocefin, 50 mM sodium phosphate buffer pH7.0, 37° C.
T1 construct: The β-lactamases are isolated from bacterial strains which are resistant to penicillins and cephalosporins; endogenous in cells; host or cells: E. coli 250HT21 (natural producer; French-press lysate, 100,000 g supernatant)
T1 sequence (P62593 24-286 limits assumed): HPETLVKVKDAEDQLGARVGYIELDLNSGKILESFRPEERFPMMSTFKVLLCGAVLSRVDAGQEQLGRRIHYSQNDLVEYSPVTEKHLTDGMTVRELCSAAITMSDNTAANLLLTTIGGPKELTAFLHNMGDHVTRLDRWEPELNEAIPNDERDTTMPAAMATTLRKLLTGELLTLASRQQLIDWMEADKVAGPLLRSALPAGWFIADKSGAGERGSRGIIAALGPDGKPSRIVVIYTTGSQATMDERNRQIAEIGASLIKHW
In short: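 TEM-1 from soluble extract of E. coli 250HT21, normalized enzyme, 100 μM Nitrocefin in 50 mM sodium phosphate pH 7.0 at 37 °C. Initial-rate hydrolysis read kinetically at 485 nm, with and without 5 min enzyme–inhibitor preincubation. CI50 from 6 or 8 concentrations in duplicate.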

β-lactamase P99 = target: T2, β-lactamase P99 (Enterobacter cloacae, UniProt P05364); assay: biochemical
T2 construct: The β-lactamases are isolated from bacterial strains which are resistant to penicillins and cephalosporins; endogenous in cells; host or cells: Enterobacter cloacae 293HT6 (natural producer; French-press lysate, 100,000 g supernatant)
T2 sequence (P05364 21-381): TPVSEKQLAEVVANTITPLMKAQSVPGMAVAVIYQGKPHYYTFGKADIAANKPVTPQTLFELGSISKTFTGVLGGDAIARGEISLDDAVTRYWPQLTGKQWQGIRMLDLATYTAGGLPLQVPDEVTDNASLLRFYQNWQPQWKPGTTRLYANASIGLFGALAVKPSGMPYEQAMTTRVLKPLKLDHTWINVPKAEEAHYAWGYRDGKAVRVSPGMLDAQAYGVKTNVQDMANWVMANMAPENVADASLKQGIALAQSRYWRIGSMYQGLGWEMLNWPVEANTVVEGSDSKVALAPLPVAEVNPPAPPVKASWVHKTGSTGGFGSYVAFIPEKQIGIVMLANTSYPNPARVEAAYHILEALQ
In short: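 P99 β-lactamase, taken from the soluble fraction of an Enterobacter cloacae 293HT6 lysate, was assayed at 37° C. in 50 mM sodium phosphate buffer pH7.0 with 100 μM Nitrocefin as the chromogenic substrate. Hydrolysis was followed kinetically at 485 nm at initial speed, with and without a 5 mn enzyme–inhibitor preincubation. Inhibitors were tested at 6 or 8 concentrations in duplicate, and IC50 was fitted with GraFit.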

E. coli 250CF1 (Tem3) = assay: microbe, parasite or virus in culture; type: cell-based; details: compound at 5 mg/l, 24 hours at 37° C.; for MIC of Cefotaxime in combination with the compound: Trial 4, 250CF1 E. coli Tem3; for MIC of Piperacillin in combination with the compound: Trial 4, 250CF1 Tem3
In short: (§1)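 β-Lactamine was serially diluted in liquid medium with the test product held constant at 5 mg/l, then each dilution was inoculated with bacteria. After 24 hours at 37° C, the lowest concentration showing no bacterial growth was taken as the MIC, in mg/l.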

[1] = system: E. cloacae 293HT6 (Class C); assay: MIC, micro-dilution in liquid medium, β-lactamine with product at 5 mg/l; type: cell-based; details: compound at 5 mg/l, 24 hours at 37° C.; for MIC of Piperacillin in combination with the compound: Trial 9, 293HT6 Class; for MIC of Cefotaxime in combination with the compound: Trial 9, 293HT6 E. cloacae Class C
In short: as §1

E. coli 250BE1 (SHV4) = assay: as above; type: cell-based; details: compound at 5 mg/l, 24 hours at 37° C.; for MIC of Cefotaxime in combination with the compound: Trial 7, 250BE1 E. coli SHV4; for MIC of Piperacillin in combination with the compound: Trial 7, 250BE1 SHV4
In short: as §1

E. coli 250HT21 (Tem1) = assay: as above; type: cell-based; details: compound at 5 mg/l, 24 hours at 37° C.; for MIC of Cefotaxime in combination with the compound: Trial 2, 250HT21 E. coli Tem1; for MIC of Piperacillin in combination with the compound: Trial 2, 250HT21 Tem1
In short: as §1

E. coli 250HT22 (Tem2) = assay: as above; type: cell-based; details: compound at 5 mg/l, 24 hours at 37° C.; for MIC of Cefotaxime in combination with the compound: Trial 3, 250HT22 E. coli Tem2; for MIC of Piperacillin in combination with the compound: Trial 3, 250HT22 Tem2
In short: as §1

[2] = system: E. coli 250HT23 (Class D); assay: as above; type: cell-based; details: compound at 5 mg/l, 24 hours at 37° C.; for MIC of Piperacillin in combination with the compound: Trial 8, 250HT23 Class D; for MIC of Cefotaxime in combination with the compound: Trial 8, 250HT23 E. coli Class D
In short: as §1

E. coli 250HT26 (SHV1) = assay: as above; type: cell-based; details: compound at 5 mg/l, 24 hours at 37° C.; for MIC of Cefotaxime in combination with the compound: Trial 6, 250HT26 E. coli SHV1; for MIC of Piperacillin in combination with the compound: Trial 6, 250HT26 SHV1
In short: as §1

E. coli 250SJ1 (Tem7) = assay: as above; type: cell-based; details: compound at 5 mg/l, 24 hours at 37° C.; for MIC of Cefotaxime in combination with the compound: Trial 5, 250SJ1 E. coli Tem7; for MIC of Piperacillin in combination with the compound: Trial 5, 250SJ1 Tem7
In short: as §1

[3] = system: P. aeruginosa 391HT7 (PSE); assay: as above; type: cell-based; details: compound at 5 mg/l, 24 hours at 37° C.; for MIC of Cefotaxime in combination with the compound: Trial 11, 391HT7 P. aeruginosa PSE; for MIC of Piperacillin in combination with the compound: Trial 11, 391HT7 PSE
In short: as §1

[4] = system: P. aeruginosa 391HT8 (PSE); assay: as above; type: cell-based; details: compound at 5 mg/l, 24 hours at 37° C.; for MIC of Cefotaxime in combination with the compound: Trial 12, 391HT8 P. aeruginosa PSE; for MIC of Piperacillin in combination with the compound: Trial 12, 391HT8 PSE
In short: as §1

[5] = system: S. aureus 011GO66 (PeniR); assay: as above; type: cell-based; details: compound at 5 mg/l, 24 hours at 37° C.; for MIC of Cefotaxime in combination with the compound: Trial 1, 011GO66 S. aureus PeniR; for MIC of Piperacillin in combination with the compound: Trial 1, 011GO66 peniR
In short: as §1

Serratia 301HT6 = assay: as above; type: cell-based; details: compound at 5 mg/l; Trial 10, 301HT6 Serratia; 24 hours at 37° C.
In short: as §1

[6] = 100 μM Nitrocefin, 50 mM sodium phosphate buffer pH7.0, 37° C., read-out: IC50 nM/P99

| Compound | IC50 (β-lactamase TEM1) | IC50 (β-lactamase P99) | MIC of Cefotaxime in combination with the compound (E. coli 250CF1 (Tem3)) | MIC of Piperacillin in combination with the compound (E. coli 250CF1 (Tem3)) | MIC of Piperacillin in combination with the compound [1] | MIC of Cefotaxime in combination with the compound [1] | MIC of Cefotaxime in combination with the compound (E. coli 250BE1 (SHV4)) | MIC of Piperacillin in combination with the compound (E. coli 250BE1 (SHV4)) | MIC of Cefotaxime in combination with the compound (E. coli 250HT21 (Tem1)) | MIC of Piperacillin in combination with the compound (E. coli 250HT21 (Tem1)) | MIC of Cefotaxime in combination with the compound (E. coli 250HT22 (Tem2)) | MIC of Piperacillin in combination with the compound (E. coli 250HT22 (Tem2)) | MIC of Piperacillin in combination with the compound [2] | MIC of Cefotaxime in combination with the compound [2] | MIC of Piperacillin in combination with the compound (E. coli 250HT26 (SHV1)) | MIC of Piperacillin in combination with the compound (E. coli 250SJ1 (Tem7)) | MIC of Piperacillin in combination with the compound [3] | MIC of Piperacillin in combination with the compound [4] | MIC of Piperacillin in combination with the compound [5] | MIC of Piperacillin in combination with the compound (Serratia 301HT6) | other results |
| --- | --- | --- | --- | --- | --- | --- | --- | --- | --- | --- | --- | --- | --- | --- | --- | --- | --- | --- | --- | --- | --- |
| NC(=O)COC(=O)C1CCC2CN1C(=O)N2OS(=O)(=O)O (stereo not drawn) [Example 48, sodium salt of trans 2-amino-2-oxoethyl 7-oxo-6-(sulphooxy)-1,6-diazabicyclo[3.2.1]octane-2-carboxylate] | 15 nM | 120 nM | <=0.04 μg/ml | 1.2 µg/mL | 2.5 µg/mL | 0.15 µg/mL | 0.08 µg/mL | 2.5 µg/mL | <=0.04 μg/ml | 0.6 µg/mL | <=0.04 μg/ml | 2.5 µg/mL | 5 µg/mL | <=0.04 μg/ml | 1.2 µg/mL | 1.2 µg/mL | >40 µg/mL | >40 µg/mL | 1.2 µg/mL | 0.6 µg/mL | MIC of Cefotaxime in combination with the compound (E. coli 250HT26 (SHV1)): <=0.04 μg/ml; MIC of Cefotaxime in combination with the compound (E. coli 250SJ1 (Tem7)): <=0.04 μg/ml; MIC of Cefotaxime in combination with the compound [3]: 40 µg/mL; MIC of Cefotaxime in combination with the compound [4]: >40 µg/mL; MIC of Cefotaxime in combination with the compound [5]: 2.5 µg/mL; MIC of Cefotaxime in combination with the compound (Serratia 301HT6): <=0.04 μg/ml |
| O=C(OCCc1ccccn1)[C@H]1CC[C@@H]2CN1C(=O)N2OS(=O)(=O)[O-].[Na+] (relative stereo) [Example 50, sodium salt of trans 2-(2-pyridinyl)ethyl 7-oxo-6-(sulphooxy)-1,6-diazabicyclo[3.2.1]octane-2-carboxylate] | 18 nM | – | – | 5 µg/mL | >40 µg/mL | – | – | 40 µg/mL | – | 2.5 µg/mL | – | 40 µg/mL | 40 µg/mL | – | 40 µg/mL | 40 µg/mL | >40 µg/mL | >40 µg/mL | 1.2 µg/mL | 0.6 µg/mL | IC50 (β-lactamase P99; [6]): 150 nM |
| NC(=O)Nc1cccc(NC(=O)[C@H]2CC[C@@H]3CN2C(=O)N3OS(=O)(=O)[O-])c1.[Na+] (relative stereo) [Example 46, sodium salt of trans-N-[3-[(aminocarbonyl)amino]phenyl]-7-oxo-6-(sulphooxy)-1,6-diazabicyclo[3.2.1]octane-2-carboxamide] | 26 nM | – | – | 2.5 µg/mL | >40 µg/mL | – | – | 40 µg/mL | – | 5 µg/mL | – | >40 µg/mL | 10 µg/mL | – | >40 µg/mL | >40 µg/mL | >40 µg/mL | >40 µg/mL | 0.6 µg/mL | 1.2 µg/mL | IC50 (β-lactamase P99; [6]): 70 nM |
| O=C(NCc1cccnc1)C1CCC2CN1C(=O)N2OS(=O)(=O)O (stereo not drawn) [Example 43, sodium salt of trans-7-oxo-N-(3-pyridinylmethyl)-6-(sulphooxy)-1,6-diazabicyclo[3.2.1]octane-2-carboxamide] | 31 nM | 76 nM | 0.08 µg/mL | 2.5 µg/mL | 2.5 µg/mL | 0.08 µg/mL | <=0.04 μg/ml | 10 µg/mL | <=0.04 μg/ml | 1.2 µg/mL | <=0.04 μg/ml | 1.2 µg/mL | 2.5 µg/mL | <=0.04 μg/ml | 5 µg/mL | 5 µg/mL | >40 µg/mL | >40 µg/mL | 1.2 µg/mL | 0.6 µg/mL | MIC of Cefotaxime in combination with the compound (E. coli 250HT26 (SHV1)): <=0.04 μg/ml; MIC of Cefotaxime in combination with the compound (E. coli 250SJ1 (Tem7)): <=0.04 μg/ml; MIC of Cefotaxime in combination with the compound [3]: 20 µg/mL; MIC of Cefotaxime in combination with the compound [4]: 20 µg/mL; MIC of Cefotaxime in combination with the compound [5]: 2.5 µg/mL; MIC of Cefotaxime in combination with the compound (Serratia 301HT6): <=0.04 μg/ml |
